Assay results published in patent US20230330254A1 (Regeneron Pharmaceuticals, Inc., priority 2022, published 2023).
*1 amine or outer side, *2 acyl side, *3 side chain or, on linkers, in order; H or OH if unused. Where a SMILES comes first, the peptide text is derived from it. [ ]: non-standard residue; d: D form. The star is where a group is joined. Bip(2'-Et-4'-O(CH2)4NH2) = CCc1cc(OCCCCN[*:3])ccc1-c1ccc(C[C@H](N[*:1])C(=O)[*:2])cc1; Bip(2'-Et,4'-O(CH2)4NH2) = CCc1cc(OCCCCN)ccc1-c1ccc(C[C@H](N)C(=O)O)cc1; Malonyl(2,2-Me2,histaminyl) = CC(C)(C(=O)NCCc1cnc[nH]1)C(=O)*; X7 = O=C(NCCOCCOCCOCCOC(=O)*)OC[C@@H]1[C@@H]2CCC#CCC[C@@H]21; Nva(5-(3,5-Me2Ph)) = Cc1cc(C)cc(CCC[C@H](N)C(=O)O)c1; Ala(1H-tetrazol-5-yl) = N[C@@H](Cc1nnn[nH]1)C(=O)O; αMePhe(2-F) = C[C@](N)(Cc1ccccc1F)C(=O)O

Columns and labels:
[1] = molecular target: T1, human GLP1R (Homo sapiens, UniProt P43220); experiment: Luciferase reporter assay, HEK293/CRE-Luc/hGLP1R (Example 17); type: cell-based; parameters: engineered to express full-length human GLP1R, cynomolgus GLP1R; expressed in transfected cells; host or cells: HEK293/CRE-Luc; conditions: HEK293/CRE-Luc/hGLP1R; for S/N: highest RLU / RLU of untreated wells; for EC50: payloads and linker-payloads, experiments A-E, M2361 repeated in each, read-out: EC50; for Relative Potency (% M2361 EC50) / Relative Signal:Noise (% M2361): relative to M2361 of the same experiment
Description: (§1) To test the activity of GLP1R agonist payloads, GLP1R agonist linker-payloads (LPs), and anti-GLP1R antibody tethered drug conjugates (ATDCs) of the invention, a cell-based cAMP responsive luciferase reporter assay was developed. To generate the assay cell line, the firefly luciferase gene was placed under the control of a cAMP response element (CRE) located upstream of a minimal promoter and transfected into HEK293 cells and referred to herein as HEK293/CRE-Luc cells.
(§2) Three-fold serial dilutions of free payloads or LPs were prepared in 100% DMSO, transferred to fresh assay media, and added to the cells at a final constant DMSO concentration of 0.2%. The last well in the plate served as a blank control containing only the assay media and 0.2% DMSO (untreated well) and was plotted as a continuation of the 3-fold serial dilution. Four to six hours later, luciferase activity was determined after the addition of One-Glo™ reagent (Promega, Cat #E6130) to each well. Relative light units (RLUs) were measured on an Envision luminometer (PerkinElmer) and EC50 values were determined using a four-parameter logistic equation over a 12-point dose response curve (GraphPad Prism). The signal to noise (S/N) was determined by taking the ratio of the highest RLU on the dose response curve to the RLU in the untreated wells. Data was generated across several experiments (A-E) with M2361 serving as a reference standard in each experiment to calculate the payload relative potency ((M2361 EC50/payload EC50)*100)) and relative S/N ((payload SN/M2361 SN)*100)).

[2] = tested on: HEK293/CRE-Luc cells; experiment: Luciferase reporter assay, HEK293/CRE-Luc cells without GLP1R (Example 17); type: cell-based, human; conditions: HEK293/CRE-Luc cells without hGLP1R, payloads and linker-payloads; for EC50: read-out: EC50
Description: as §1, §2

[3] = molecular target: T1, human GLP1R; experiment: Human GLP1R cAMP accumulation assay; type: cell-based; parameters: HEK293 cells over-expressing full length human GLP-1R were utilized; expressed in transfected cells; host or cells: HEK293 (HEK293/hGLP1R); conditions: HEK293/hGLP1R cells; Table 4; read-out: cAMP EC50
Procedure: 8.1 Human GLP1R cAMP Accumulation Assay (Cyclic AMP Determination)
The functional activity of the test compounds for agonizing GLP1R were evaluated using a cell-based assay. For the assay, HEK293 cells over-expressing full length human GLP-1R were utilized and the downstream cAMP accumulation was assessed as a measure of human GLP-1R stimulation. […] Diluted compounds were transferred to OptiPlates (100 nL/well) using an Echo liquid handler. HEK293/hGLP1R cells were thawed in 37° C. water-bath, washed 2 times with HBSS and re-suspended in assay buffer (HBSS+5 mM HEPES+500 μM IBMX+0.1% BSA). […] After centrifugation, the assay plate was incubated at 23° C. for 30 min. The reaction was terminated by adding 10 μL of lysis buffer containing D2-cAMP and a cAMP-antibody from the cyclic AMP immunoassay kit (Cisbio, Cat #62AM4PEJ). […] The levels of cAMP per well were calculated using a standard curve generated by GraphPad Prism. Percent activity was calculated according to the formula (% Activity=100%*(cAMP level-LC)/(HC-LC)). EC50 values were fitted from a four-parameter logistic equation over a 10-point response curve (GraphPad Prism).

T1 sequence (P43220 24-463): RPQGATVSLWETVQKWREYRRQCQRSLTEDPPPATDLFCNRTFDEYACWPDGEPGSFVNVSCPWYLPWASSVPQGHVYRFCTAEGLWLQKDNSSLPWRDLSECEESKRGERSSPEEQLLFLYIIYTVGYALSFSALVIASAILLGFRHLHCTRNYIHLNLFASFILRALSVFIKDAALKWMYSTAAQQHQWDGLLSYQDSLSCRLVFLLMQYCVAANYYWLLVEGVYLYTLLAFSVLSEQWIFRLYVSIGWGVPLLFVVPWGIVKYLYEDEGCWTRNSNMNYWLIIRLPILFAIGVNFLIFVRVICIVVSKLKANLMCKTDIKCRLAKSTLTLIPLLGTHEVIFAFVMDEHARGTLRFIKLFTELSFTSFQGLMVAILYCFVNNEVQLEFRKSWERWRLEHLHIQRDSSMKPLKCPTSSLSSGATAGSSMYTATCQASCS

Row | SMILES | S/N [1] | EC50 [1] [nM] | Relative Potency (% M2361 EC50) [1] [%] | Relative Signal:Noise (% M2361) [1] [%] | EC50 [3] [nM] | S/N [2] | EC50 [2] [nM]
1 | CCc1cc(OCCCCNC(=O)OCCOCCOCCOCCNC(=O)OC[C@@H]2[C@@H]3CCC#CCC[C@@H]32)ccc1-c1ccc(C[C@H](NC(=O)[C@H](CC(=O)O)NC(=O)[C@H](CO)NC(=O)[C@@H](NC(=O)[C@](C)(Cc2ccccc2F)NC(=O)[C@@H](NC(=O)CNC(=O)[C@H](Cc2nn[nH]n2)NC(=O)C(C)(C)C(=O)NCCc2cnc[nH]2)[C@@H](C)O)[C@@H](C)O)C(=O)N[C@@H](CCCc2cc(C)cc(C)c2)C(N)=O)cc1 [LP5, BCN-PEG4-carba-mate P9] ({Malonyl(2,2-Me2,histaminyl)}-[Ala(1H-tetrazol-5-yl)]GT[αMePhe(2-F)]TSD[Bip(2'-Et-4'-O(CH2)4NH2)](X7)[Nva(5-(3,5-Me2Ph))]-NH2) | 54.8 | 0.0242 | 21.9 | 83.4 | 0.044 | 1.8 | > 200
2 | CCc1cc(OCCCCNC(=O)[C@H](CO)NC(=O)CNC(=O)CNC(=O)CNC(=O)CNC(=O)CCC(=O)N2Cc3ccccc3C#Cc3ccccc32)ccc1-c1ccc(C[C@H](NC(=O)[C@H](CC(=O)O)NC(=O)[C@H](CO)NC(=O)[C@@H](NC(=O)[C@](C)(Cc2ccccc2F)NC(=O)[C@@H](NC(=O)CNC(=O)[C@H](Cc2nn[nH]n2)NC(=O)C(C)(C)C(=O)NCCc2cnc[nH]2)[C@@H](C)O)[C@@H](C)O)C(=O)N[C@@H](CCCc2cc(C)cc(C)c2)C(=O)Nc2ccccc2)cc1 [LP15, DIBAC- suc-G4S- P23] | 48.1 | 0.0704 | 7.5 | 73.2 | 0.649 | 1.5 | > 200
3 | CCc1cc(OCCCCN)ccc1-c1ccc(C[C@H](NC(=O)[C@H](CC(=O)O)NC(=O)[C@H](CO)NC(=O)[C@@H](NC(=O)[C@](C)(Cc2ccccc2F)NC(=O)[C@@H](NC(=O)CNC(=O)[C@H](Cc2nn[nH]n2)NC(=O)[C@@H](N)CO)[C@@H](C)O)[C@@H](C)O)C(=O)N[C@@H](CCCc2cc(C)cc(C)c2)C(N)=O)cc1 [P7] (H-S[Ala(1H-tetrazol-5-yl)]GT[αMePhe(2-F)]TSD[Bip(2'-Et,4'-O(CH2)4NH2)][Nva(5-(3,5-Me2Ph))]-NH2) | 48.4 | 1.89 | 0.3 | 73.6 | 2.06 | 1.0 | > 200
4 | CCc1cc(OCCCCN)ccc1-c1ccc(C[C@H](NC(=O)[C@H](CC(=O)O)NC(=O)[C@H](CO)NC(=O)[C@@H](NC(=O)[C@](C)(Cc2ccccc2F)NC(=O)[C@@H](NC(=O)CNC(=O)[C@H](Cc2nn[nH]n2)NC(=O)C(C)(C)C(=O)NCCc2cnc[nH]2)[C@@H](C)O)[C@@H](C)O)C(=O)Nc2ccccc2)cc1 [P22] | 48.9 | 0.44 | 1.2 | 74.4 | 0.603 | 1.5 | > 200
5 | CCc1cc(OCCCCN)ccc1-c1ccc(C[C@H](NC(=O)[C@H](CC(=O)O)NC(=O)[C@H](CO)NC(=O)[C@@H](NC(=O)[C@](C)(Cc2ccccc2F)NC(=O)[C@@H](NC(=O)CNC(=O)[C@H](Cc2nn[nH]n2)NC(=O)[C@H](C)NC(=O)[C@@H](N)Cc2ccc(O)cc2)[C@@H](C)O)[C@@H](C)O)C(=O)N[C@@H](CCCc2cc(C)cc(C)c2)C(N)=O)cc1 [P18] | 68.2 | 0.0613 | 8.7 | 103.6 | 0.37 | 1.4 | > 200
6 | CCc1cc(OCCCCNC(=O)[C@H](CO)NC(=O)CNC(=O)CNC(=O)CNC(=O)CNC(=O)CCC(=O)N2Cc3ccccc3C#Cc3ccccc32)ccc1-c1ccc(C[C@H](NC(=O)[C@H](CC(=O)O)NC(=O)[C@H](CO)NC(=O)[C@@H](NC(=O)[C@](C)(Cc2ccccc2F)NC(=O)[C@@H](NC(=O)CNC(=O)[C@H](Cc2nn[nH]n2)NC(=O)C(C)(C)C(=O)NCCc2cnc[nH]2)[C@@H](C)O)[C@@H](C)O)C(=O)N[C@@H](CCCc2cc(C)cc(C)c2)C(N)=O)cc1 [LP6, DIBAC- suc-G4S- P9] | 65.7 | 0.0251 | 21.2 | 99.9 | 0.436 | 1.4 | > 200
7 | CCc1cc(OC)ccc1-c1ccc(C[C@H](NC(=O)[C@H](CC(=O)O)NC(=O)[C@H](CO)NC(=O)C(NC(=O)[C@](C)(Cc2ccccc2F)NC(=O)[C@@H](NC(=O)CNC(=O)[C@H](Cc2nn[nH]n2)NC(=O)C(C)(C)C(=O)NCCc2cnc[nH]2)[C@@H](C)O)[C@@H](C)O)C(=O)N[C@@H](CCCc2ccc(OCCCCN)cc2)C(N)=O)cc1 (stereo in doubt) [P24] | 65.0 | 0.0316 | 16.8 | 98.9 | 0.136 | 1.0 | > 200

More lines, main results first:

Row | S/N [1] | EC50 [1] [nM] | Relative Potency (% M2361 EC50) [1] [%] | Relative Signal:Noise (% M2361) [1] [%] | EC50 [3] [nM] | SMILES | S/N [2] | EC50 [2] [nM]
8 | 62.1 | 0.0467 | 11.4 | 94.4 | 0.458 | CCc1cc(OCCCCNC(=O)CNC(=O)CNC(=O)CNC(=O)CNC(=O)[C@H](CO[C@@H]2O[C@H](CO)[C@@H](O)[C@H](O)[C@H]2O)NC(=O)CCNC(=O)OC[C@@H]2[C@@H]3CCC#CCC[C@@H]32)ccc1-c1ccc(C[C@H](NC(=O)[C@H](CC(=O)O)NC(=O)[C@H](CO)NC(=O)[C@@H](NC(=O)[C@](C)(Cc2ccccc2F)NC(=O)[C@@H](NC(=O)CNC(=O)[C@H](Cc2nn[nH]n2)NC(=O)C(C)(C)C(=O)NCCc2cnc[nH]2)[C@@H](C)O)[C@@H](C)O)C(=O)N[C@@H](CCCc2cc(C)cc(C)c2)C(N)=O)cc1 [LP18, BCN NHC2 H4CO (glucose) SG4-P9] | 1.1 | > 200
9 | 73.8 | 0.0174 | 30.5 | 112.2 | 0.078 | CCc1cc(OCCCCn2cc(COCCOCCOCCOCCNC(=O)OC[C@@H]3[C@@H]4CCC#CCC[C@@H]43)nn2)ccc1-c1ccc(C[C@H](NC(=O)[C@H](CC(=O)O)NC(=O)[C@H](CO)NC(=O)[C@@H](NC(=O)[C@](C)(Cc2ccccc2F)NC(=O)[C@@H](NC(=O)CNC(=O)[C@H](Cc2nn[nH]n2)NC(=O)C(C)(C)C(=O)NCCc2cnc[nH]2)[C@@H](C)O)[C@@H](C)O)C(=O)N[C@@H](CCCc2cc(C)cc(C)c2)C(N)=O)cc1 [LP9, BCN-PEG4-triazole-P8] | 1.3 | > 200
10 | 55.3 | 0.00972 | 54.6 | 84.1 | 0.378 | CCc1cc(OCCCCNC(=O)CNC(=O)CNC(=O)CNC(=O)CNC(=O)[C@H](CO)NC(=O)CCC(=O)N2Cc3ccccc3C#Cc3ccccc32)ccc1-c1ccc(C[C@H](NC(=O)[C@H](CC(=O)O)NC(=O)[C@H](CO)NC(=O)[C@@H](NC(=O)[C@](C)(Cc2ccccc2F)NC(=O)[C@@H](NC(=O)CNC(=O)[C@H](Cc2nn[nH]n2)NC(=O)C(C)(C)C(=O)NCCc2cnc[nH]2)[C@@H](C)O)[C@@H](C)O)C(=O)N[C@@H](CCCc2cc(C)cc(C)c2)C(N)=O)cc1 [LP7, DIBAC-suc-SG4-P9] | 1.1 | > 200
